Measured values from US9822124B2, “Bicyclic heteroaromatic carboxamide compounds useful as Pim kinase inhibitors” (Incyte Corporation, priority 2014, dated 2017).

Assays:
Type in all cases: biochemical
[1] = target: Pim-1 (Homo sapiens (Human), UniProt P11309); assay: Pim-1 kinase assay (AlphaScreen, Biotin-labeled BAD peptide substrate); conditions: 1 mM ATP; read-out: Pim1 IC50
Procedure: (§1) Pim-1 and Pim-3 kinase assays—20 μL reactions were run in white 384 well polystyrene plates dotted with 0.8 μL compound/DMSO in the assay buffer (50 mM Tris, pH 7.5, 0.01% Tween-20, 5 mM MgCl2, 0.01% BSA, 5 mM DTT), containing 0.05 μM Biotin-labeled BAD peptide substrate (AnaSpec 62269), 1 mM ATP, and […] (Pim-1, Invitrogen PV3503) or […] (Pim-3, Millipore 14-738) enzyme for 1 h at 25° C. Reactions were stopped by addition of 10 μL STOP Buffer (150 mM Tris, pH=7.5, 150 mM NaCl, 75 mM EDTA, 0.01% Tween-20, 0.3% BSA) supplemented with Phospho-Bad (Ser112) Antibody (Cell Signaling 9291) diluted 666-fold, and Streptavidin donor beads (PerkinElmer 6760002) along with Protein-A acceptor beads (PerkinElmer 6760137) at 15 μg/mL each. Supplementation of the STOP buffer with beads and stopping the reactions were done under reduced light. Prior to the stopping reactions STOP buffer with beads was preincubated for 1 h in the dark at room temperature. After stopping the reactions, plates were incubated for 1 h in the dark at room temperature before reading on a PHERAstar FS plate reader (BMG Labtech) under reduced light.

[2] = target: Pim-2 (Homo sapiens (Human), UniProt Q9P1W9); assay: Pim-2 kinase assay (TR-FRET, Fluorescein-labeled CREBtide peptide substrate); conditions: 1 mM ATP; read-out: Pim2 IC50
Procedure: Pim-2 kinase assay—20 μL reactions were run in white 384 well polystyrene plates dotted with 0.8 μL compound/DMSO in the assay buffer (50 mM Tris, pH 7.5, 0.01% Tween-20, 5 mM MgCl2, 0.01% BSA, 5 mM DTT), containing 0.05 μM Fluorescein-labeled CREBtide peptide substrate (Invitrogen PV3508), 1 mM ATP, and 1 nM enzyme (Invitrogen PV3649) for 2 h at 25° C. Reactions were stopped by addition of 10 μL TR-FRET Dilution Buffer (Invitrogen PV3574) with 30 mM EDTA and 1.5 nM LanthaScreen Tb-CREB pSer133 antibody (Invitrogen PV3566). After 30 min. incubation at room temperature, plates were read on a PHERAstar FS plate reader (BMG Labtech).

[3] = target: Pim-3 (Homo sapiens (Human), UniProt Q86V86); assay: Pim-3 kinase assay (AlphaScreen, Biotin-labeled BAD peptide substrate); conditions: 1 mM ATP; read-out: Pim3 IC50
Procedure: as §1

Chain of Pim-2 (Q9P1W9 whole entry): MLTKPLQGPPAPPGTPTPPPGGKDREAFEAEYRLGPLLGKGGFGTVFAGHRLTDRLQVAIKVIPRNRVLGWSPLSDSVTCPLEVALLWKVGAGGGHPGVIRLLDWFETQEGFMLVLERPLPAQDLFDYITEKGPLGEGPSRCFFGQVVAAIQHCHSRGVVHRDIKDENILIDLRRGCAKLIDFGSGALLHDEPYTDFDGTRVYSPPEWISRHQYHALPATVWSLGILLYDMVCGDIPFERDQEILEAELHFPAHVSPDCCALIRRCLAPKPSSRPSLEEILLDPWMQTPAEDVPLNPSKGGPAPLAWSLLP
Chain of Pim-1 (P11309 whole entry): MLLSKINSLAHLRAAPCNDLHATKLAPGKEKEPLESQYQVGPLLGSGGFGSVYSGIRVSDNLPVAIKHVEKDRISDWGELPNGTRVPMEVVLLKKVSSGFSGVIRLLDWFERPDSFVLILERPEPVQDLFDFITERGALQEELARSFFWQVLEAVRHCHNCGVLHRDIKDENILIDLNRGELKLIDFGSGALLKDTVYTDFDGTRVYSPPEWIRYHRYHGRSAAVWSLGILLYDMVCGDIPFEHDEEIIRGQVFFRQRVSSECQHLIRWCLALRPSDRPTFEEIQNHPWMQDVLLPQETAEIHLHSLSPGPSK

## N[C@H]1CCCN(c2ccncc2NC(=O)c2ccc3scc(C4CC4)c3n2)C1 [Example 67, (S)-N-(4-(3-Aminopiperidin-1-yl)pyridin-3-yl)-3-cyclopropylthieno[3,2-b]pyridine-5-carboxamide]
[1]
  IC50: ≤ 10 nM
[2]
  IC50: 100 to 1000 nM
[3]
  IC50: ≤ 10 nM

## CC(C)c1coc2ccc(C(=O)Nc3cnccc3[C@@H]3C[C@H](C)C[C@H](N)C3)nc12 [Example 68, N-{4-[(1R,3S,5S)-3-Amino-5-methylcyclohexyl]pyridin-3-yl}-3-isopropylfuro[3,2-b]pyridine-5-carboxamide]
[1]
  IC50: ≤ 10 nM
[2]
  IC50: ≤ 100 nM
[3]
  IC50: ≤ 10 nM

## C[C@H]1CN(c2ccncc2NC(=O)c2ccc3cc(C4CC4)oc3n2)C[C@@H](N)[C@@H]1O [Example 69, N-{4-[(3R,4R,5S)-3-Amino-4-hydroxy-5-methylpiperidin-1-yl]pyridin-3-yl}-2-cyclopropylfuro[2,3-b]pyridine-6-carboxamide]
[1]
  IC50: ≤ 10 nM
[2]
  IC50: ≤ 100 nM
[3]
  IC50: ≤ 10 nM

## CC(C)c1coc2ccc(C(=O)Nc3cnccc3N3C[C@@H](N)[C@H](O)[C@@H](C)C3)nc12 [Example 10, N-(4-((3R,4R,5S)-3-Amino-4-hydroxy-5-methylpiperidin-1-yl)pyridin-3-yl)-3-isopropylfuro[3,2-b]pyridine-5-carboxamide]
[1]
  IC50: ≤ 10 nM
[2]
  IC50: ≤ 100 nM
[3]
  IC50: ≤ 10 nM

## C[C@@H]1C[C@H](N)CN(c2ccncc2NC(=O)c2ccc3occ(-c4cncc(C#N)c4)c3n2)C1 [Example 26, N-(4-((3S,5R)-3-Amino-5-methylpiperidin-1-yl)pyridin-3-yl)-3-(5-cyanopyridin-3-yl)furo[3,2-b]pyridine-5-carboxamide]
[1]
  IC50: ≤ 10 nM
[2]
  IC50: > 2000 nM
[3]
  IC50: 10 to 50 nM

## CCc1csc2ccc(C(=O)Nc3cnccc3N3CCC[C@H](N)C3)nc12 [Example 66, N-{4-[(3S)-3-Aminopiperidin-1-yl]pyridin-3-yl}-3-ethylthieno[3,2-b]pyridine-5-carboxamide]
[1]
  IC50: ≤ 10 nM
[2]
  IC50: 100 to 1000 nM
[3]
  IC50: ≤ 10 nM

## C[C@@H]1C[C@H](N)CN(c2ccncc2NC(=O)c2ccc3occ(-c4c(F)cccc4F)c3n2)C1 [Example 19, N-(4-((3S,5R)-3-Amino-5-methylpiperidin-1-yl)pyridin-3-yl)-3-(2,6-difluorophenyl)furo[3,2-b]pyridine-5-carboxamide]
[1]
  IC50: ≤ 10 nM
[2]
  IC50: ≤ 100 nM
[3]
  IC50: ≤ 10 nM

## CC(C)c1coc2ccc(C(=O)Nc3cnccc3N3CCC[C@H](N)C3)nc12 [Example 36, (S)-N-(4-(3-Aminopiperidin-1-yl)pyridin-3-yl)-3-isopropylfuro[3,2-b]pyridine-5-carboxamide]
[1]
  IC50: ≤ 10 nM
[2]
  IC50: ≤ 100 nM
[3]
  IC50: ≤ 10 nM

## COc1cc(F)c(-c2cnn3ccc(C(=O)Nc4cnccc4[C@@H]4C[C@H](C)C[C@H](N)C4)nc23)c(F)c1 [Example 84, N-{4-[(1R,3S,5S)-3-Amino-5-methylcyclohexyl]pyridin-3-yl}-3-(2,6-difluoro-4-methoxyphenyl)pyrazolo[1,5-a]pyrimidine-5-carboxamide]
[1]
  IC50: ≤ 10 nM
[2]
  IC50: ≤ 100 nM
[3]
  IC50: ≤ 10 nM

## C[C@H]1CN(c2ccncc2NC(=O)c2ccc3occ(C4CC4)c3n2)C[C@@H](N)[C@@H]1O [Example 34, N-(4-((3R,4R,5S)-3-Amino-4-hydroxy-5-methylpiperidin-1-yl)pyridin-3-yl)-3-cyclopropylfuro[3,2-b]pyridine-5-carboxamide]
[1]
  IC50: ≤ 10 nM
[2]
  IC50: ≤ 100 nM
[3]
  IC50: ≤ 10 nM

## COc1ccc(-c2cc3nc(C(=O)Nc4cnccc4N4C[C@@H](N)[C@H](O)[C@@H](C)C4)ccc3s2)cn1 [Example 43, N-(4-((3R,4R,5S)-3-Amino-4-hydroxy-5-methylpiperidin-1-yl)pyridin-3-yl)-2-(6-methoxypyridin-3-yl)thieno[3,2-b]pyridine-5-carboxamide]
[1]
  IC50: ≤ 10 nM
[2]
  IC50: 100 to 1000 nM
[3]
  IC50: ≤ 10 nM

## C[C@@H]1C[C@H](N)CN(c2ccncc2NC(=O)c2ccc3sc(-c4cnn(C)c4)cc3n2)C1 [Example 60, N-(4-((3S,5R)-3-Amino-5-methylpiperidin-1-yl)pyridin-3-yl)-2-(1-methyl-1H-pyrazol-4-yl)thieno[3,2-b]pyridine-5-carboxamide]
[1]
  IC50: ≤ 10 nM
[2]
  IC50: ≤ 100 nM
[3]
  IC50: ≤ 10 nM

## C[C@@H]1C[C@H](N)C[C@H](c2ccncc2NC(=O)c2ccn3ncc(-c4c(F)cccc4F)c3n2)C1 [Example 83, N-{4-[(1R,3S,5S)-3-Amino-5-methylcyclohexyl]pyridin-3-yl}-3-(2,6-difluorophenyl)pyrazolo[1,5-a]pyrimidine-5-carboxamide]
[1]
  IC50: ≤ 10 nM
[2]
  IC50: 100 to 1000 nM
[3]
  IC50: ≤ 10 nM

## CC(C)c1csc2ccc(C(=O)Nc3cnccc3N3C[C@H](C)C[C@H](N)C3)nc12 [Example 62, N-(4-((3S,5R)-3-Amino-5-methylpiperidin-1-yl)pyridin-3-yl)-3-isopropylthieno[3,2-b]pyridine-5-carboxamide]
[1]
  IC50: ≤ 10 nM
[2]
  IC50: ≤ 100 nM
[3]
  IC50: ≤ 10 nM

## C[C@H]1CN(c2ccncc2NC(=O)c2ccc3occ(C4CCOCC4)c3n2)C[C@@H](N)[C@@H]1O [Example 17, N-(4-((3R,4R,5S)-3-Amino-4-hydroxy-5-methylpiperidin-1-yl)pyridin-3-yl)-3-(tetrahydro-2H-pyran-4-yl)furo[3,2-b]pyridine-5-carboxamide]
[1]
  IC50: ≤ 10 nM
[2]
  IC50: 100 to 1000 nM
[3]
  IC50: ≤ 10 nM

## C[C@H]1CN(c2ccncc2NC(=O)c2ccc3oc(-c4ccc(N5CCOCC5)nc4)cc3n2)C[C@@H](N)[C@@H]1O [Example 9, N-(4-((3R,4R,5S)-3-Amino-4-hydroxy-5-methylpiperidin-1-yl)pyridin-3-yl)-2-(6-morpholinopyridin-3-yl)furo[3,2-b]pyridine-5-carboxamide]
[1]
  IC50: ≤ 10 nM
[2]
  IC50: 1000 to 10000 nM
[3]
  IC50: ≤ 10 nM

## C[C@H]1CN(c2ccncc2NC(=O)c2ccc3sc(-c4c(F)cccc4F)cc3n2)C[C@@H](N)[C@@H]1O [Example 40, N-(4-((3R,4R,5S)-3-Amino-4-hydroxy-5-methylpiperidin-1-yl)pyridin-3-yl)-2-(2,6-difluorophenyl)thieno[3,2-b]pyridine-5-carboxamide]
[1]
  IC50: ≤ 10 nM
[2]
  IC50: 100 to 1000 nM
[3]
  IC50: ≤ 10 nM

## C[C@H]1CN(c2ccncc2NC(=O)c2ccc3cc([C@H]4C[C@@H]4c4ccccc4)oc3n2)C[C@@H](N)[C@@H]1O [Example 72, N-(4-((3R,4R,5S)-3-Amino-4-hydroxy-5-methylpiperidin-1-yl)pyridin-3-yl)-2-((1S,2S)-2-phenylcyclopropyl)furo[2,3-b]pyridine-6-carboxamide]
[1]
  IC50: ≤ 10 nM
[2]
  IC50: 1000 to 10000 nM
[3]
  IC50: ≤ 10 nM

## C[C@H]1CN(c2ccncc2NC(=O)c2ccc3sc(C4CC4)nc3n2)C[C@@H](N)[C@@H]1O [Example 79, N-{4-[(3R,4R,5S)-3-Amino-4-hydroxy-5-methylpiperidin-1-yl]pyridin-3-yl}-2-cyclopropyl[1,3]thiazolo[4,5-b]pyridine-5-carboxamide]
[1]
  IC50: ≤ 10 nM
[2]
  IC50: 100 to 1000 nM
[3]
  IC50: ≤ 10 nM

## C[C@H]1CN(c2ccncc2NC(=O)c2ccc3sc(C4CC4)cc3n2)C[C@@H](N)[C@@H]1O [Example 47, N-(4-((3R,4R,5S)-3-Amino-4-hydroxy-5-methylpiperidin-1-yl)pyridin-3-yl)-2-cyclopropylthieno[3,2-b]pyridine-5-carboxamide]
[1]
  IC50: ≤ 10 nM
[2]
  IC50: ≤ 100 nM
[3]
  IC50: ≤ 10 nM

## C[C@@H]1C[C@H](N)CN(c2ccncc2NC(=O)c2ccc3scc(-c4cnn(C)c4)c3n2)C1 [Example 63, N-(4-((3S,5R)-3-Amino-5-methylpiperidin-1-yl)pyridin-3-yl)-3-(1-methyl-1H-pyrazol-4-yl)thieno[3,2-b]pyridine-5-carboxamide]
[1]
  IC50: ≤ 10 nM
[2]
  IC50: > 2000 nM
[3]
  IC50: > 40 nM

## CC(C)c1cc2nc(C(=O)Nc3cnccc3N3C[C@@H](N)[C@H](O)[C@@H](C)C3)ccc2o1 [Example 6, N-{4-[(3R,4R,5S)-3-Amino-4-hydroxy-5-methylpiperidin-1-yl]pyridin-3-yl}-2-isopropylfuro[3,2-b]pyridine-5-carboxamide]
[1]
  IC50: 10 to 50 nM
[2]
  IC50: 100 to 1000 nM
[3]
  IC50: ≤ 10 nM

## CCc1coc2ccc(C(=O)Nc3cnccc3N3C[C@H](C)C[C@H](N)C3)nc12 [Example 20, N-(4-((3S,5R)-3-Amino-5-methylpiperidin-1-yl)pyridin-3-yl)-3-ethylfuro[3,2-b]pyridine-5-carboxamide]
[1]
  IC50: ≤ 10 nM
[2]
  IC50: ≤ 100 nM
[3]
  IC50: ≤ 10 nM
